Drawing on patent publication US20090311217A1, “3-SUBSTITUTED-1H-INDOLE COMPOUNDS, THEIR USE AS MTOR KINASE AND PI3 KINASE INHIBITORS, AND THEIR SYNTHESES” (priority 2008, published 2009), this text covers IC50 for 23 compounds.

In general, IC50 refers to the point on the concentration scale where inhibition reaches its midpoint.

Some results are limits rather than exact numbers.

Common to all, as to assay type: biochemical
One test addresses T1, human TOR (Homo sapiens, UniProt P42345).
T1 construct: FLAG
Description: mTOR enzyme assay (DELFIA, His6-S6K substrate). To be noted: read-out: mTOR Kinase Avg. IC50.

The next test concerns the target PI3K-gamma (Homo sapiens, UniProt P48736). In words: PI3K-gamma fluorescence polarization assay. To be noted: PI3Kγ Avg. IC50. Summed up: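 Inhibition is derived from a polarization signal: after a 1 h, 25° C kinase step (25 μM ATP, 2.5 μM diC8-PIP2, pH 7), EDTA stops the reaction and the GRP1 PH domain/TMR-IP4 pair reports lipid product.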
On the technique in general: In fluorescence polarisation assays a small probe gives low polarisation when free and higher when bound to something large.

The target of another test is PI3K-alpha (Homo sapiens, UniProt P42336). In words: PI3K-alpha fluorescence polarization assay. The settings on record: read-out: PI3Kα Avg. IC50.
Chain of PI3K-alpha (P42336 whole entry, species assumed): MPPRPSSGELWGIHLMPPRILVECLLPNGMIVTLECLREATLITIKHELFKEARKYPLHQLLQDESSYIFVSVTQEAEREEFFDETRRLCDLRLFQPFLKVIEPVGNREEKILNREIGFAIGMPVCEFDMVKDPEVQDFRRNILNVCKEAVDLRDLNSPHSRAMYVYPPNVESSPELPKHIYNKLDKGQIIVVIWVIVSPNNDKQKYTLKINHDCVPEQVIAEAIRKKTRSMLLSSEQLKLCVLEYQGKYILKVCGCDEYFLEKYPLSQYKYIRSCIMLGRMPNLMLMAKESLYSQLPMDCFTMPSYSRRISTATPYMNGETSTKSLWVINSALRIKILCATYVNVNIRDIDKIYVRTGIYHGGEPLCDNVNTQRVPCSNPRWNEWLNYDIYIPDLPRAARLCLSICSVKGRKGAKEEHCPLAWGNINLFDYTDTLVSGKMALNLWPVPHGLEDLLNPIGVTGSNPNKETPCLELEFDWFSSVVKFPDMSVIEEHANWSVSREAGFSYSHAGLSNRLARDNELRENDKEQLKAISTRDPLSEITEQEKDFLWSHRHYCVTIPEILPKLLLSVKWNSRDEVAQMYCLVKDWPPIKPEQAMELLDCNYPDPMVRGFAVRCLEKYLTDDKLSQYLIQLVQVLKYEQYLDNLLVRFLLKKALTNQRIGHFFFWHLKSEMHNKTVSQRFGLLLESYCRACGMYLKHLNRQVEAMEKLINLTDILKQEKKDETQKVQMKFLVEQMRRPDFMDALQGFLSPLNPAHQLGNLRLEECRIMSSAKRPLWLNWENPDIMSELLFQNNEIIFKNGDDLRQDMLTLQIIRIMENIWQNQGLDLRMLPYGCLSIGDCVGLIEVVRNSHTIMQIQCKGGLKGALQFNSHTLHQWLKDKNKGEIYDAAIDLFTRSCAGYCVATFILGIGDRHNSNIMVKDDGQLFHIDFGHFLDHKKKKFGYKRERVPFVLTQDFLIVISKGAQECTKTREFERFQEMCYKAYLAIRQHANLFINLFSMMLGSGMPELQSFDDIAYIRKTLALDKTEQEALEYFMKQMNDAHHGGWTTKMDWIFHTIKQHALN
Chain of PI3K-alpha (P27986 whole entry partner, species assumed): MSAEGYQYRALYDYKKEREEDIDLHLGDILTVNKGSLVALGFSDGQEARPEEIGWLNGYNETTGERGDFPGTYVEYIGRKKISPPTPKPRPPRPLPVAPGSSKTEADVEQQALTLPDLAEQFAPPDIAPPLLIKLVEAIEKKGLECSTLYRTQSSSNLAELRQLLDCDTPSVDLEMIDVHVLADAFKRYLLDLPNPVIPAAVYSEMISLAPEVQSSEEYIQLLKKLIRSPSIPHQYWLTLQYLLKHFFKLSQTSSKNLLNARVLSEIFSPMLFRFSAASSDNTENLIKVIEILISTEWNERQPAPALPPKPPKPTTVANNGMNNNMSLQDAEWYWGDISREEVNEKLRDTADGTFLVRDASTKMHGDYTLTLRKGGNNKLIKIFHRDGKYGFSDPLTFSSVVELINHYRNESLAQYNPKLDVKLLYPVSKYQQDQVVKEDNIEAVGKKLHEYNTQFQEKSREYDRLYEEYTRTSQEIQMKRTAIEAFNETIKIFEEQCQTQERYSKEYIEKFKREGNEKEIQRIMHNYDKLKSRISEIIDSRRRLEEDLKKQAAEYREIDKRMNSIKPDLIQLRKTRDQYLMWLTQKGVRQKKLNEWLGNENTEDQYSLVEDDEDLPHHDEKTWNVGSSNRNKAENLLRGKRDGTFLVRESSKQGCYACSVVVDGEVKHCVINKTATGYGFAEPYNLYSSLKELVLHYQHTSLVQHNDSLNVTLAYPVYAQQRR

Chain of PI3K-gamma (P48736 whole entry, species assumed, the tested form may be a part): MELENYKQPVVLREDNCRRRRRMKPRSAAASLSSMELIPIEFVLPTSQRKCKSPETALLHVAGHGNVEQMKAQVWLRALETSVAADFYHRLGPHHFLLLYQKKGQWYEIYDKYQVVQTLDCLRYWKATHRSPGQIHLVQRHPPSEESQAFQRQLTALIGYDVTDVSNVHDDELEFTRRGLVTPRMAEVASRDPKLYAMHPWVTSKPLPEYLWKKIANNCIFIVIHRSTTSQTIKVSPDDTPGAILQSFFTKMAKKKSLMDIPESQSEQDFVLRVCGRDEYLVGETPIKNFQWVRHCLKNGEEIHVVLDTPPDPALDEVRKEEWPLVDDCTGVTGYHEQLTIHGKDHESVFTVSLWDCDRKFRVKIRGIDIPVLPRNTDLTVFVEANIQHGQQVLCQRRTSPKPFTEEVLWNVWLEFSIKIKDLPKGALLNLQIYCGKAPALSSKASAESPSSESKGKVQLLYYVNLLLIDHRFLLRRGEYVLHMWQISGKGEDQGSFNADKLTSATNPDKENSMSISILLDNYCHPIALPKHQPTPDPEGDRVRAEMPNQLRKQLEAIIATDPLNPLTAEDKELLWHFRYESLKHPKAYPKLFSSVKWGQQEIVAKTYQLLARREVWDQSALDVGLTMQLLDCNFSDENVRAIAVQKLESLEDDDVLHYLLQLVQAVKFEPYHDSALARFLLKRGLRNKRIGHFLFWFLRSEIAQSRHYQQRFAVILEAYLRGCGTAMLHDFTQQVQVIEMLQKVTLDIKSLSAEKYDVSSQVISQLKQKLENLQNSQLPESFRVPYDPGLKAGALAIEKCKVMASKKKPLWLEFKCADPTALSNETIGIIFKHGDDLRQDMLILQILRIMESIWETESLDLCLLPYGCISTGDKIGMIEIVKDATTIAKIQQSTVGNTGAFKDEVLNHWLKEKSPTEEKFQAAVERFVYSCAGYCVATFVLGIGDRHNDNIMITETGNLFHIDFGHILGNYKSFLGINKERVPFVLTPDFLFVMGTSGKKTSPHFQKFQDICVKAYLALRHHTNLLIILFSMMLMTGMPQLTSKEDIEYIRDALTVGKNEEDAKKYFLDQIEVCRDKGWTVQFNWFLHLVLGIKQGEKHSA

Consider `CCn1cc(/C=C2\Oc3ccc(NC(=O)Nc4ccc(C(=O)N(C)CCN(C)C)cc4)cc3C2=O)c2cc(OC)ccc21` [Compound 655, N-[2-(dimethylamino)ethyl]-4-[({(2Z)-2-[(1-ethyl-5-methoxy-1H-indol-3-yl)methylene]-3-oxo-2,3-dihydro-1-benzofuran-5-yl}carbamoyl)amino]-N-methylbenzamide], for which the values for the IC50 at human TOR, at PI3K-gamma and on PI3K-alpha were 0.175 µM, 0.0075 µM and 0.0006 µM, respectively.

As for `CCn1c(C)c(/C=C2\Oc3ccc(NC(=O)Nc4ccc(CCCCN(C)C)cc4)cc3C2=O)c2cc(OC)ccc21` [Compound 663, 1-{4-[4-(dimethylamino)butyl]phenyl}-3-{(2Z)-2-[(1-ethyl-5-methoxy-2-methyl-1H-indol-3-yl)methylidene]-3-oxo-2,3-dihydro-1-benzofuran-5-yl}urea], the IC50 on human TOR came to 0.71 µM; at PI3K-gamma, 0.0423 µM; at PI3K-alpha, 0.00573 µM.

`COc1ccc2c(c1)c(/C=C1\Oc3c(ccc(O)c3Cl)C1=O)c(C)n2CCN1CCN(C)CC1` [Example 451, (2Z)-7-Chloro-6-hydroxy-2-({5-methoxy-2-methyl-1-[2-(4-methylpiperazin-1-yl)ethyl]-1H-indol-3-yl}methylene)-1-benzofuran-3(2H)-one]: the IC50 on human TOR was more than 20 µM; on PI3K-gamma, 7.74 µM; at PI3K-alpha it was 0.375 µM.

For the compound `COc1ccc2c(c1)c(C=C1Oc3c(ccc(O)c3O)C1=O)c(C)n2C` [Example 90, 6,7-dihydroxy-2-[(5-methoxy-1,2-dimethyl-1H-indol-3-yl)methylene]-1-benzofuran-3(2H)-one], the IC50 is 1.59 µM on human TOR, 1.22 µM against PI3K-gamma and 0.202 µM on PI3K-alpha.

In the case of `O=C1C(=Cc2c(-c3ccccc3)n(CC3CC3)c3ccccc23)Oc2cc(O)cc(O)c21` [Example 152, 2-{[1-(cyclopropylmethyl)-2-phenyl-1H-indol-3-yl]methylene}-4,6-dihydroxy-1-benzofuran-3(2H)-one], the IC50 at human TOR was 1.45 µM; against PI3K-gamma, 4.47 µM; at PI3K-alpha it was 4.18 µM.

`CCn1c(-c2ccccc2)c(C=C2Oc3cc(O)cc(O)c3C2=O)c2ccccc21` [Example 213, 2-[(1-ethyl-2-phenyl-1H-indol-3-yl)methylene]-4,6-dihydroxy-1-benzofuran-3(2H)-one]: the IC50 came out at 0.17 µM at human TOR, 2.65 µM against PI3K-gamma and 0.77 µM on PI3K-alpha.

Regarding `Cn1cc(/C=C2\Oc3cc(O)cc(O)c3C2=O)c2c(-c3ccc(F)cc3)cccc21` [Example 364, (2Z)-2-{[4-(4-Fluorophenyl)-1-methyl-1H-indol-3-yl]methylene}-4,6-dihydroxy-1-benzofuran-3(2H)-one], the IC50 turned out to be 0.123 µM on human TOR, 1.28 µM against PI3K-gamma and 0.698 µM on PI3K-alpha.

In the case of `COc1ccc2c(c1)c(/C=C1\Oc3cc(O)ccc3C1=O)c(-c1c(C)noc1C)n2CCN1CCN(C)CC1` [Example 469, (2Z)-2-({2-(3,5-Dimethylisoxazol-4-yl)-5-methoxy-1-[2-(4-methylpiperazin-1-yl)ethyl]-1H-indol-3-yl}methylene)-6-hydroxy-1-benzofuran-3(2H)-one], the concentration for half-maximal inhibition (IC50) turned out to be 0.165 µM at human TOR, 0.942 µM at PI3K-gamma and 0.0235 µM at PI3K-alpha.

Consider `CNC(=O)Nc1ccc(-c2cccc3c2c(/C=C2\Oc4cc(O)cc(O)c4C2=O)cn3C)cc1` [Example 393, 1-(4-{3-[(Z)-(4,6-Dihydroxy-3-oxo-1-benzofuran-2(3H)-ylidene)methyl]-1-methyl-1H-indol-4-yl}phenyl)-3-methylurea], for which the half-inhibitory concentration (IC50) at human TOR was 0.0235 µM; at PI3K-gamma, 2.52 µM; on PI3K-alpha, 0.608 µM.

Regarding `CNC(=O)Nc1ccc2c(c1)C(=O)/C(=C/c1c(-c3c(C)n[nH]c3C)[nH]c3c(F)cc(OC)cc13)O2` [Compound 714, 1-[(2Z)-2-{[2-(3,5-dimethyl-1H-pyrazol-4-yl)-7-fluoro-5-methoxy-1H-indol-3-yl]methylidene}-3-oxo-2,3-dihydro-1-benzofuran-5-yl]-3-methylurea], the IC50 was less than 0.001 µM at human TOR, 0.0037 µM against PI3K-gamma and 0.00055 µM at PI3K-alpha.

Take `COc1ccc2c(c1)c(/C=C1\Oc3cc(O)ccc3C1=O)c(C)n2CCN1CCC(C)CC1` [Example 455, (2Z)-6-Hydroxy-2-({5-methoxy-2-methyl-1-[2-(4-methylpiperidin-1-yl)ethyl]-1H-indol-3-yl}methylene)-1-benzofuran-3(2H)-one]: the IC50 at human TOR is 1.4 µM; against PI3K-gamma it was 0.612 µM; on PI3K-alpha, 0.039 µM.

For `CNC(=O)Nc1ccc2c(c1)C(=O)/C(=C/c1c(-c3c(C)nn(C)c3C)n(CCCC#N)c3ccc(OC)cc13)O2` [Compound 634, 1-[(2Z)-2-{[1-(3-cyanopropyl)-5-methoxy-2-(1,3,5-trimethyl-1H-pyrazol-4-yl)-1H-indol-3-yl]methylene}-3-oxo-2,3-dihydro-1-benzofuran-5-yl]-3-methylurea], the half-maximal inhibitory concentration (IC50) at human TOR is 0.019 µM; against PI3K-gamma, 0.0165 µM; on PI3K-alpha it was 0.0021 µM.

With `CCn1c(C)c(/C=C2\Oc3ccc(NC(=O)Nc4ccc(CCCN(C)C)cc4)cc3C2=O)c2cc(OC)ccc21` [Compound 671, 1-{4-[3-(dimethylamino)propyl]phenyl}-3-{(2Z)-2-[(1-ethyl-5-methoxy-2-methyl-1H-indol-3-yl)methylidene]-3-oxo-2,3-dihydro-1-benzofuran-5-yl}urea], the IC50 came out at 0.22 µM at human TOR, 0.025 µM on PI3K-gamma and 0.004 µM on PI3K-alpha.

In the case of `COc1ccc2c(c1)c(/C=C1\Oc3cc(O)ccc3C1=O)c(C1CC1)n2CCCN(C)C` [Example 462, (2Z)-2-({2-Cyclopropyl-1-[3-(dimethylamino)propyl]-5-methoxy-1H-indol-3-yl}methylene)-6-hydroxy-1-benzofuran-3(2H)-one], the IC50 on human TOR was determined as 0.635 µM; at PI3K-gamma it was 1.05 µM; on PI3K-alpha, 0.0215 µM.

Regarding `Cn1cc(/C=C2\Oc3cc(O)cc(O)c3C2=O)c2c(-c3cccc(O)c3)cccc21` [Example 390, (2Z)-4,6-Dihydroxy-2-{[4-(3-hydroxyphenyl)-1-methyl-1H-indol-3-yl]methylene}-1-benzofuran-3(2H)-one], the IC50 at human TOR is 0.09 µM; at PI3K-gamma it was 2.04 µM; on PI3K-alpha it was 1.12 µM.

As to `Cn1c(-c2ccccn2)c(C=C2Oc3cc(O)cc(O)c3C2=O)c2ccccc21` [Example 223, 4,6-dihydroxy-2-[(1-methyl-2-pyridin-2-yl-1H-indol-3-yl)methylene]-1-benzofuran-3(2H)-one], the concentration for half-maximal inhibition (IC50) was 0.06 µM on human TOR, more than 10 µM on PI3K-gamma and 3.66 µM on PI3K-alpha.

As for `Cn1c(-c2ccc(Cl)cc2)c(C=C2Oc3cc(O)cc(O)c3C2=O)c2ccccc21` [Example 201, 2-{[2-(4-chlorophenyl)-1-methyl-1H-indol-3-yl]methylene}-4,6-dihydroxy-1-benzofuran-3(2H)-one], the IC50 was determined as 0.12 µM at human TOR, 5.46 µM at PI3K-gamma and 0.712 µM at PI3K-alpha.

On to `Cn1cc(C=C2Oc3cc(O)cc(O)c3C2=O)c2cc(Br)ccc21` [Example 248, 2-[(5-bromo-1-methyl-1H-indol-3-yl)methylene]-4,6-dihydroxy-1-benzofuran-3(2H)-one], for which the values for the half-inhibitory concentration (IC50) on human TOR, against PI3K-gamma and on PI3K-alpha were more than 20 µM, more than 10 µM and 1.04 µM, respectively.

Take `O=C1/C(=C/c2c[nH]c3cccc(-c4ccc(F)cc4)c23)Oc2cc(O)cc(O)c21` [Example 363, (2Z)-2-{[4-(4-fluorophenyl)-1H-indol-3-yl]methylene}-4,6-dihydroxy-1-benzofuran-3(2H)-one]: the results for the IC50 on human TOR, at PI3K-gamma and at PI3K-alpha were 3.5 µM, 1.08 µM and 1.65 µM, respectively.

Turning to `COc1ccc2[nH]c(C3CCCCC3)c(/C=C3\Oc4ccc(NC(=O)Nc5ccc(C(=O)N6CCN(C)CC6)cc5)cc4C3=O)c2c1` [Compound 644, 1-{(2Z)-2-[(2-cyclohexyl-5-methoxy-1H-indol-3-yl)methylene]-3-oxo-2,3-dihydro-1-benzofuran-5-yl}-3-{4-[(4-methylpiperazin-1-yl)carbonyl]phenyl}urea], the IC50 at human TOR was determined as 0.033 µM; against PI3K-gamma, 0.0025 µM; at PI3K-alpha, 0.0003 µM.

On to `Cn1cc(/C=C2\Oc3cc(O)cc(O)c3C2=O)c2c(-c3ccc(C#N)nc3)cccc21` [Example 397, 5-{3-[(Z)-(4,6-Dihydroxy-3-oxo-1-benzofuran-2(3H)-ylidene)methyl]-1-methyl-1H-indol-4-yl}pyridine-2-carbonitrile], for which the half-maximal inhibitory concentration (IC50) was determined as 0.02 µM at human TOR, 8.53 µM against PI3K-gamma and 1.84 µM on PI3K-alpha.

In the case of `COc1ccc2[nH]cc(/C=C3\Oc4ccc(NC(=O)Nc5ccc(C(=O)N6CCN(C)CC6)cc5)cc4C3=O)c2c1` [Compound 643, 1-{(2Z)-2-[(5-methoxy-1H-indol-3-yl)methylene]-3-oxo-2,3-dihydro-1-benzofuran-5-yl}-3-{4-[(4-methylpiperazin-1-yl)carbonyl]phenyl}urea], the IC50 was more than 4 µM on human TOR, 0.004 µM at PI3K-gamma and 0.0009 µM on PI3K-alpha.

On to `Cn1cc(/C=C2\Oc3cc(O)cc(O)c3C2=O)c2c(-c3cnn(CCN4CCOCC4)c3)cccc21` [Example 403, (2Z)-4,6-Dihydroxy-2-({1-methyl-4-[1-(2-morpholin-4-ylethyl)-1H-pyrazol-4-yl]-1H-indol-3-yl}methylene)-1-benzofuran-3(2H)-one], for which the IC50 at human TOR turned out to be 0.123 µM; against PI3K-gamma it was 7.71 µM; at PI3K-alpha, 1.64 µM.
